# Target: T1, BACE-1 enzyme (Homo sapiens, UniProt P56817)
# T1 construct: purchased R & D Systems 931AS
# Experiment: BACE Fluorescence Resonance Energy Transfer (FRET) Assay
# Assay type: biochemical
# Details: pH 4-4.5, 30 min pre-incubation, about 1.5 hours reaction
# Experimental: BACE Fluorescence Resonance Energy Transfer (FRET) Assay
# In the following assay, the proteolytic activity of BACE is measured by observing cleavage of a fluorescent group from a peptide substrate containing a rhodamine fluorescent donor and a quenching acceptor.
# The inhibitory activity of compounds of Formula (I) may be compared to a statine derived control inhibitor STA200 (MP Biomedical Cat. #STA-200). The cleavage reaction occurs when a BACE-1 substrate (Invitrogen, Cat. #P2986) was added to a reaction mixture containing BACE-1 enzyme (R & D Systems, Cat. #931AS) and allowed to proceed for about 1.5 hours. Fluorescence, used as a marker of BACE activity, is monitored using 540 nm excitation and 585 nm emission wavelengths (Envision, Perkin Elmer).
# A typical assay reaction contains BACE-1 enzyme—in assay buffer (50 mM sodium acetate, pH 4-4.5, 0.01% CHAPS (3-[(3-Cholamidopropyl)dimethylammonio]-1-propanesulfonate), 0.0125% TritonX-100, 0.006% EDTA) which is pre-incubated for 30 minutes with test compound in 7.5% DMSO. The reaction is initiated with the addition of BACE-1 substrate in assay buffer and allowed to proceed for about 1.5 hours at room temperature. Assays are conducted in black 384-well microtiter plates and scanned at room temperature using 540 nm excitation and 585 nm emission wavelengths.
# In some instances, the percent inhibition at a given concentration is reported instead of the IC50.
# T1 sequence (P56817 46-457 limits assumed): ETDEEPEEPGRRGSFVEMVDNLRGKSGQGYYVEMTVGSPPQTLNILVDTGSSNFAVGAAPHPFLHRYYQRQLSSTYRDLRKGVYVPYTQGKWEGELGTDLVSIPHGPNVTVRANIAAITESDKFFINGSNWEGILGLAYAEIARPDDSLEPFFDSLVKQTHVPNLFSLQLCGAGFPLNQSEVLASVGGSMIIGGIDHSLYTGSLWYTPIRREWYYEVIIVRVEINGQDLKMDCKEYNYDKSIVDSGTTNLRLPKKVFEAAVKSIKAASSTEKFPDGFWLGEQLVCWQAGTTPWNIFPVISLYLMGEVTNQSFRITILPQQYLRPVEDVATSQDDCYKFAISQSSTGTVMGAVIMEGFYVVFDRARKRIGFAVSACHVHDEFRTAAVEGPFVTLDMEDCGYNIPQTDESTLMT
row,IC50 [µM],SMILES
1,0.45,"Cc1ccc2nc(C(=O)Nc3nc4cc(OCc5ccc(C(F)(F)F)cc5)ccc4[nH]3)cn2c1 [Example 60, 6-Methyl-imidazo[1,2-a]pyridine-2-carboxylic acid [5-(4-trifluoromethyl-benzyloxy)-1H-benzoimidazol-2-yl]-amide]"
2,0.28,"Cc1cccc2nc(C(=O)Nc3nc4cc(-c5cc(Cl)cc(C(F)(F)F)c5)ccc4[nH]3)cn12 [Example 66, 5-Methyl-imidazo[1,2-a]pyridine-2-carboxylic acid [6-(3-chloro-5-trifluoromethyl-phenyl)-1H-benzoimidazol-2-yl]-amide]"
3,0.53,"Cc1cccc2nc(C(=O)Nc3nc4cc(-c5cc(C(F)(F)F)ccc5Cl)ccc4[nH]3)cn12 [Example 67, 5-Methyl-imidazo[1,2-a]pyridine-2-carboxylic acid [5-(2-chloro-5-trifluoromethyl-phenyl)-1H-benzoimidazol-2-yl]-amide]"
4,1.24,"Cc1cccc2nc(C(=O)Nc3nc4cc(-c5ccc(S(C)(=O)=O)cc5)ccc4[nH]3)cn12 [Example 73, 5-Methyl-imidazo[1,2-a]pyridine-2-carboxylic acid [5-(4-methanesulfonyl-phenyl)-1H-benzoimidazol-2-yl]-amide]"
5,1.72,"Cc1cccc2nc(C(=O)Nc3nc4cc(-c5cccc(S(C)(=O)=O)c5)ccc4[nH]3)cn12 [Example 74, 5-Methyl-imidazo[1,2-a]pyridine-2-carboxylic acid [5-(3-methanesulfonyl-phenyl)-1H-benzoimidazol-2-yl]-amide]"
6,2.07,"Cc1cccn2cc(C(=O)Nc3nc4cc(-c5cccc(S(C)(=O)=O)c5)ccc4[nH]3)nc12 [Example 75, 8-Methyl-imidazo[1,2-a]pyridine-2-carboxylic acid [5-(3-methanesulfonyl-phenyl)-1H-benzoimidazol-2-yl]-amide]"
7,1.72,"CCOc1ccc(-c2ccc3[nH]c(NC(=O)c4cn5cccc(C)c5n4)nc3c2)cc1F [Example 81, 8-Methyl-imidazo[1,2-a]pyridine-2-carboxylic acid [5-(4-ethoxy-3-fluoro-phenyl)-1H-benzoimidazol-2-yl]-amide]"
8,1.93,"Cc1cccc2nc(C(=O)Nc3nc4cc(C5CCCCC5)ccc4[nH]3)cn12 [Example 85, 5-Methyl-imidazo[1,2-a]pyridine-2-carboxylic acid (5-cyclohexyl-1H-benzoimidazol-2-yl)-amide]"
9,0.28,"Cc1cccn2cc(C(=O)Nc3nc4cc(-c5cc(Cl)cc(C(F)(F)F)c5)ccc4[nH]3)nc12 [Example 86, 8-Methyl-imidazo[1,2-a]pyridine-2-carboxylic acid [5-(3-chloro-5-trifluoromethyl-phenyl)-1H-benzoimidazol-2-yl]-amide]"
10,0.29,"Cc1cccn2cc(C(=O)Nc3nc4cc(-c5cc(Cl)ccc5Cl)ccc4[nH]3)nc12 [Example 88, 8-Methyl-imidazo[1,2-a]pyridine-2-carboxylic acid [5-(2,5-dichloro-phenyl)-1H-benzoimidazol-2-yl]-amide]"
11,2.28,"COc1ccc(-c2ccc3[nH]c(NC(=O)c4cn5cccc(C)c5n4)nc3c2)cc1C(F)(F)F [Example 89, 8-Methyl-imidazo[1,2-a]pyridine-2-carboxylic acid [5-(4-methoxy-3-trifluoromethyl-phenyl)-1H-benzoimidazol-2-yl]-amide]"
12,0.49,"Cc1cccc2nc(C(=O)Nc3nc4cc(-c5ccc(OC(C)C)c(Cl)c5)ccc4[nH]3)cn12 [Example 90, 5-Methyl-imidazo[1,2-a]pyridine-2-carboxylic acid [5-(3-chloro-4-isopropoxy-phenyl)-1H-benzoimidazol-2-yl]-amide]"
13,0.44,"Cc1cccc2nc(C(=O)Nc3nc4cc(-c5ccc(C(F)(F)F)cc5Cl)ccc4[nH]3)cn12 [Example 91, 5-Methyl-imidazo[1,2-a]pyridine-2-carboxylic acid [5-(2-chloro-4-trifluoromethyl-phenyl)-1H-benzoimidazol-2-yl]-amide]"
14,1.78,"Cc1cccn2cc(C(=O)Nc3nc4cc(-c5ccc(C(F)(F)F)c(Cl)c5)ccc4[nH]3)nc12 [Example 93, 8-Methyl-imidazo[1,2-a]pyridine-2-carboxylic acid [5-(3-chloro-4-trifluoromethyl-phenyl)-1H-benzoimidazol-2-yl]-amide]"
15,0.42,"Cc1cccc2nc(C(=O)Nc3nc4cc(-c5cc(F)cc(C(F)(F)F)c5)ccc4[nH]3)cn12 [Example 94, 5-Methyl-imidazo[1,2-a]pyridine-2-carboxylic acid [5-(3-fluoro-5-trifluoromethyl-phenyl)-1H-benzoimidazol-2-yl]-amide]"
16,0.32,"Cc1cccn2cc(C(=O)Nc3nc4cc(-c5cc(F)cc(C(F)(F)F)c5)ccc4[nH]3)nc12 [Example 95, 8-Methyl-imidazo[1,2-a]pyridine-2-carboxylic acid [5-(3-fluoro-5-trifluoromethyl-phenyl)-1H-benzoimidazol-2-yl]-amide]"
17,1.17,"Cc1cccc2nc(C(=O)Nc3nc4cc(-c5cnc(N(C)C)nc5)ccc4[nH]3)cn12 [Example 96, 5-Methyl-imidazo[1,2-a]pyridine-2-carboxylic acid [5-(2-dimethylamino-pyrimidin-5-yl)-1H-benzoimidazol-2-yl]-amide]"
18,0.44,"Cc1cccc2nc(C(=O)Nc3nc4cc(-c5ccc(OC(F)(F)F)cc5)ccc4[nH]3)cn12 [Example 98, 5-Methyl-imidazo[1,2-a]pyridine-2-carboxylic acid [5-(4-trifluoromethoxy-phenyl)-1H-benzoimidazol-2-yl]-amide]"
19,0.3,"Cc1cccc2nc(C(=O)Nc3nc4cc(-c5ccc(C6CCCCC6)cc5)ccc4[nH]3)cn12 [Example 101, 5-Methyl-imidazo[1,2-a]pyridine-2-carboxylic acid [5-(4-cyclohexyl-phenyl)-1H-benzoimidazol-2-yl]-amide]"
20,1.74,"Cc1cccc2nc(C(=O)Nc3nc4cc(-c5ccc(O)c(F)c5)ccc4[nH]3)cn12 [Example 103, 5-Methyl-imidazo[1,2-a]pyridine-2-carboxylic acid [5-(3-fluoro-4-hydroxy-phenyl)-1H-benzoimidazol-2-yl]-amide]"
21,0.31,"CCc1cccc2nc(C(=O)Nc3nc4cc(-c5cccc(C(F)(F)F)c5)ccc4[nH]3)cn12 [Example 104, 5-Ethyl-imidazo[1,2-a]pyridine-2-carboxylic acid [5-(3-trifluoromethyl-phenyl)-1H-benzoimidazol-2-yl]-amide]"
22,1.79,"COc1cc(F)ccc1-c1ccc2[nH]c(NC(=O)c3cn4c(C)cccc4n3)nc2c1 [Example 105, 5-Methyl-imidazo[1,2-a]pyridine-2-carboxylic acid [5-(4-fluoro-2-methoxy-phenyl)-1H-benzoimidazol-2-yl]-amide]"
23,0.39,"CCOc1ccc(-c2ccc3[nH]c(NC(=O)c4cn5c(C)cccc5n4)nc3c2)c(Cl)c1 [Example 108, 5-Methyl-imidazo[1,2-a]pyridine-2-carboxylic acid [5-(2-chloro-4-ethoxy-phenyl)-1H-benzoimidazol-2-yl]-amide]"
24,0.22,"O=C(Nc1nc2cc(-c3cccc(C(F)(F)F)c3)ccc2[nH]1)c1cn2c(Br)cccc2n1 [Example 111, 5-Bromo-imidazo[1,2-a]pyridine-2-carboxylic acid [5-(3-trifluoromethyl-phenyl)-1H-benzoimidazol-2-yl]-amide]"
25,0.46,"O=C(Nc1nc2cc(-c3cc(F)cc(Cl)c3)ccc2[nH]1)c1cn2cc(F)ccc2n1 [Example 113, 6-Fluoro-imidazo[1,2-a]pyridine-2-carboxylic acid [5-(3-chloro-5-fluoro-phenyl)-1H-benzoimidazol-2-yl]-amide]"
26,0.29,"CCOC(=O)c1ccn2cc(C(=O)Nc3nc4cc(-c5cc(F)cc(Cl)c5)ccc4[nH]3)nc2c1 [Example 114, 2-[5-(3-Chloro-5-fluoro-phenyl)-1H-benzoimidazol-2-ylcarbamoyl]-imidazo[1,2-a]pyridine-7-carboxylic acid ethyl ester]"
27,0.38,"O=C(Nc1nc2cc(-c3cc(F)cc(Cl)c3)ccc2[nH]1)c1cn2ccccc2n1 [Example 116, Imidazo[1,2-a]pyridine-2-carboxylic acid [5-(3-chloro-5-fluoro-phenyl)-1H-benzoimidazol-2-yl]-amide]"
28,0.99,"Cc1cccc2nc(C(=O)Nc3nc4cc(C5CCCC5)ccc4[nH]3)cn12 [Example 118, 5-Methyl-imidazo[1,2-a]pyridine-2-carboxylic acid (5-cyclopentyl-1H-benzoimidazol-2-yl)-amide]"
29,0.49,"Cc1ccc(-c2ccc3[nH]c(NC(=O)c4cn5c(C)cccc5n4)nc3c2)cc1 [Example 120, 5-Methyl-imidazo[1,2-a]pyridine-2-carboxylic acid (5-p-tolyl-1H-benzoimidazol-2-yl)-amide]"
30,1.17,"O=C(Nc1nc2cc(-c3cccc(C(F)(F)F)c3)ccc2[nH]1)c1cn2c(-c3ccccc3)cccc2n1 [Example 125, 5-Phenyl-imidazo[1,2-a]pyridine-2-carboxylic acid [5-(3-trifluoromethyl-phenyl)-1H-benzoimidazol-2-yl]-amide]"
